Publication PMC9607545, “Cry4Aa and Cry4Ba Mosquito-Active Toxins Utilize Different Domains in Binding to a Particular Culex ALP Isoform: A Functional Toxin Receptor Implicating Differential Actions on Target Larvae” (Toxins, 2022)

Assays:
[1] = molecular target: T1, Cq-mALP1263 (Culex quinquefasciatus, UniProt A0A9E8ACD0); test: hydrolysis in Sf9 cell lysate, absorbance of p-nitrophenol at […] nm; assay type: biochemical; conditions: 5 mM pNPP, 100 mM Tris-HCl pH 9.5, 5 mM MgCl2, 100 mM NaCl, 30 °C, 10 min; control: CAT-expressing lysate (endogenous ALP activity present)
T1 construct: full-length ORF, 523 residues, ~57 kDa, 1569 bp cDNA from 4th instar larval midgut; N-terminal signal peptide and predicted GPI anchor; baculovirus (AcMNPV) expression in Sf9 cells
T1 sequence (A0A9E8ACD0 19-523): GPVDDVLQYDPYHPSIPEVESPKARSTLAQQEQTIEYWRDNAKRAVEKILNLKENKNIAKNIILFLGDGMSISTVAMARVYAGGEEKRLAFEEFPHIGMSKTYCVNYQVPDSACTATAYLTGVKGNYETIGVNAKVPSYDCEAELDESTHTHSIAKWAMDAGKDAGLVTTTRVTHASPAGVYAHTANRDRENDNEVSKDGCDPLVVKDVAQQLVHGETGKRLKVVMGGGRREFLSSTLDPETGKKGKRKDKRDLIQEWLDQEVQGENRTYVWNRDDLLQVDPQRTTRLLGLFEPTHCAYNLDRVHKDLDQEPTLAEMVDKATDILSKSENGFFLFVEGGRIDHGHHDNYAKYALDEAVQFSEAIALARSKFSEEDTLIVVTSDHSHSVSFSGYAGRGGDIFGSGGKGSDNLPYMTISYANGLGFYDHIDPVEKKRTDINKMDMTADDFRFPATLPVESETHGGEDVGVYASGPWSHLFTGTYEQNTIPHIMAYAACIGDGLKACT

[2] = molecular target: T2, Cq-mALP1264 (Culex quinquefasciatus, UniProt A0A9E8AEX0); test: as above; assay type: biochemical; conditions: 5 mM pNPP, 100 mM Tris-HCl pH 9.5, 5 mM MgCl2, 100 mM NaCl, 30 °C, 10 min; control: CAT-expressing lysate (endogenous ALP activity present)
T2 construct: full-length ORF, 552 residues, ~61 kDa, 1656 bp cDNA from 4th instar larval midgut; N-terminal signal peptide and predicted GPI anchor; baculovirus (AcMNPV) expression in Sf9 cells
T2 sequence (A0A9E8AEX0 21-552): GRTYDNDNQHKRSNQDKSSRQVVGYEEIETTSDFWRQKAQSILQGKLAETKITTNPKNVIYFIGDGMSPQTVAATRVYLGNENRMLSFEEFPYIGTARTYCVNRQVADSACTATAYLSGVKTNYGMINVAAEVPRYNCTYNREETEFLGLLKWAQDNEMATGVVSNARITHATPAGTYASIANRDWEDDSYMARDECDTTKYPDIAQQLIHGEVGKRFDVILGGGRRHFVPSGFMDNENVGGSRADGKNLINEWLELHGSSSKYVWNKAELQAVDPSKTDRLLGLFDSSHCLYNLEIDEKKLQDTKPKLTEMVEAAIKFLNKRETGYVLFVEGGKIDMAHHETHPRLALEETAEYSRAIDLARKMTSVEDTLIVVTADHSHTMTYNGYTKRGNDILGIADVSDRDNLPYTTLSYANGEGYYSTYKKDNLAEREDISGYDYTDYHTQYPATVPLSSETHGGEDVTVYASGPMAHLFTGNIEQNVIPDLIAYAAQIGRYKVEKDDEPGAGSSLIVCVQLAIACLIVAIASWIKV

In the case of `O=[N+]([O-])c1ccc(OP(=O)(O)O)cc1` [pNPP], the “hydrolysis in Sf9 cell lysate, absorbance of p-nitrophenol at 405 nm” value [1] is reported as “both Cq-mALP-expressed cells produced significantly higher ALP activity than CAT-expressed cells” and the “hydrolysis in Sf9 cell lysate, absorbance of p-nitrophenol at 405 nm” value [2] is reported as “both Cq-mALP-expressed cells produced significantly higher ALP activity than CAT-expressed cells”.
